The text below walks through data of patent US10059674B2, “Design, synthesis, and biological evaluation of 1-methyl-1, 4-dihyrdoindeno[1,2-C]pyrazole analogues as potential anticaner agents targeting tubulin colchicine binding site” (ACT PHARMA CO., LTD., priority 2016, dated 2018).

Like-named read-outs stand apart in the source and are kept apart here.

One data set concerns tubulin. Nature of the data set: Tubulin polymerization experiment (Cytoskeleton Tubulin Polymerization Assay Kit). In kind it is biochemical. How it is done: The tubulin polymerization experiment is carried out according to the specifications of Tubulin Polymerization Assay Kit of Cytoskeleton Corporation.
The conditions of data set [1]: rat, microsomes, 1 µM, pH 7.47.
For data set [2] the following is noted: monkey, microsomes, 1 µM, pH 7.47.
Data set [3] in a line: in vitro. The note with it: dog, microsomes, pH 7.47.
Data set [4] is described as follows: in vitro. The note with it: monkey, microsomes, pH 7.47.
A short description of data set [5]: Liver microsomal metabolism stability test. The note with it: for Remainder: mouse liver microsomes.

`CCOc1cccc(Nc2nn(C)c3c2Cc2cc(OCC)c(OCC(N)=O)cc2-3)c1` [LL-01]: in the data set with tubulin (FIGS. 1 and 2), the “inhibition of tubulin polymerization (in words)” value is “able to inhibit tubulin polymerization”. The IC50 with tubulin (read-out: tubulin polymerization inhibiting IC50) turned out to be 4.62 µM. For the same compound, the Remainder worked out at 100.00% in data set [1] (0 h); 87.70% in data set [1] (10 min); 68.13% in data set [1] (0.5 h); 33.19% in data set [1] (1.5 h); 100.00% in data set [2] (0 h); 52.00% in data set [2] (10 min). In addition, the Remainder in data set [2] (0.5 h) was 20.40%; in data set [2] (1.5 h) it was 4.76%; in data set [5] (incubation time 0 min) it was 100.00%; in data set [5] (incubation time 10 min) it was 87.76%; in data set [5] (incubation time 30 min), 63.76%; in data set [5] (incubation time 90 min) it was 32.23%. Also, the results for the half-life at 1 µM in “in vitro [3]” and in the data set “in vitro [4]” were 24.7 min and 21.6 min, respectively. For the same compound, the figures for the microsomal CLint at 1 µM in the data set “in vitro [3]” and in “in vitro [4]” were 56 µL/min/mg and 64.2 µL/min/mg, respectively. Besides, the “metabolism in the liver microsomes (in words)” value in data set [5] (mouse) was “moderate”.

The IC50 is the concentration needed to halve the response being measured. Broadly, the half-life is the time in which the quantity being followed falls by half. The term microsomal CLint denotes the capacity of the preparation to metabolise the compound, expressed as a volume cleared per time. Lower therefore signals slow turnover.
